Measurements: PMC11645656, “MRGPRX4 mediates phospho-drug associated pruritus in a humanized mouse model” (Science translational medicine, 2024)
Values joined by “and” are separate entries in the source; they are usually repeats but may differ in a detail not shown here. Equal entries are not always repeated.

Assays:
[1] = test system: MRGPRX4-expressing HEK293 cells (Gαq signaling pathway); experiment: Pharmacological blocker experiments: phospho-drug evoked calcium response in MRGPRX4-expressing HEK293 cells after inhibitor preincubation; note: test concentration or dose not given here
mock = experiment: Calcium mobilization assay (FLIPR), mock-transfected cells (Fig. 3E and 3F); format: cell-based

## O=C1NC(c2ccccc2)(c2ccccc2)C(=O)N1COP(=O)(O)O [Fosphenytoin]
[1]; Time 0.8024 s, + Vehicle
  calcium response trace, fig. S2B: 1
[1]; Time 0.8024 s, + YM254890
  calcium response trace, fig. S2B: 1
[1]; Time 3.296 s, + YM254890
  calcium response trace, fig. S2B: 1.0086
[1]; Time 5.8096 s, + YM254890
  calcium response trace, fig. S2B: 1.014
[1]; Time 8.3136 s, + YM254890
  calcium response trace, fig. S2B: 1.012
[1]; Time 10.8264 s, + YM254890
  calcium response trace, fig. S2B: 1.017
[1]; Time 13.3408 s, + YM254890
  calcium response trace, fig. S2B: 1.0091
[1]; Time 15.8536 s, + YM254890
  calcium response trace, fig. S2B: 1.017
[1]; Time 18.3672 s, + YM254890
  calcium response trace, fig. S2B: 1.0038
[1]; Time 20.8808 s, + YM254890
  calcium response trace, fig. S2B: 1.022 and 1.026
[1]; Time 23.3848 s, + YM254890
  calcium response trace, fig. S2B: 1.023 and 1.0316
[1]; Time 25.8984 s, + YM254890
  calcium response trace, fig. S2B: 1.028 and 1.035
[1]; Time 28.392 s, + YM254890
  calcium response trace, fig. S2B: 1.036 and 1.04
[1]; Time 30.8952 s, + YM254890
  calcium response trace, fig. S2B: 1.032 and 1.039
[1]; Time 33.3896 s, + YM254890
  calcium response trace, fig. S2B: 1.039 and 1.042
[1]; Time 35.8728 s, + YM254890
  calcium response trace, fig. S2B: 1.035 and 1.045
[1]; Time 38.3656 s, + YM254890
  calcium response trace, fig. S2B: 1.038 and 1.049
[1]; Time 40.86 s, + YM254890
  calcium response trace, fig. S2B: 1.038 and 1.045
[1]; Time 43.3632 s, + YM254890
  calcium response trace, fig. S2B: 1.041 and 1.036
[1]; Time 45.8664 s, + YM254890
  calcium response trace, fig. S2B: 1.037 and 1.041
[1]; Time 48.38 s, + YM254890
  calcium response trace, fig. S2B: 1.051 and 1.044
[1]; Time 50.8936 s, + YM254890
  calcium response trace, fig. S2B: 1.041 and 1.044
[1]; Time 53.4072 s, + YM254890
  calcium response trace, fig. S2B: 1.038 and 1.0407
[1]; Time 55.9112 s, + YM254890
  calcium response trace, fig. S2B: 1.034 and 1.044
[1]; Time 58.4248 s, + YM254890
  calcium response trace, fig. S2B: 1.04 and 1.039
[1]; Time 60.9288 s, + YM254890
  calcium response trace, fig. S2B: 1.042 and 1.044
[1]; Time 63.444 s, + YM254890
  calcium response trace, fig. S2B: 1.04 and 1.035
[1]; Time 65.9256 s, + YM254890
  calcium response trace, fig. S2B: 1.037
[1]; Time 68.4192 s, + YM254890
  calcium response trace, fig. S2B: 1.036
[1]; Time 70.9024 s, + YM254890
  calcium response trace, fig. S2B: 1.036
[1]; Time 73.3864 s, + YM254890
  calcium response trace, fig. S2B: 1.029
[1]; Time 75.8896 s, + YM254890
  calcium response trace, fig. S2B: 1.034
[1]; Time 78.3936 s, + YM254890
  calcium response trace, fig. S2B: 1.032
[1]; Time 80.9064 s, + YM254890
  calcium response trace, fig. S2B: 1.03
[1]; Time 83.4104 s, + YM254890
  calcium response trace, fig. S2B: 1.032
[1]; Time 85.9136 s, + YM254890
  calcium response trace, fig. S2B: 1.031
[1]; Time 88.4176 s, + YM254890
  calcium response trace, fig. S2B: 1.027
[1]; Time 90.9336 s, + YM254890
  calcium response trace, fig. S2B: 1.025
[1]; Time 93.4144 s, + YM254890
  calcium response trace, fig. S2B: 1.031
[1]; Time 95.908 s, + YM254890
  calcium response trace, fig. S2B: 1.026
[1]; Time 98.4016 s, + YM254890
  calcium response trace, fig. S2B: 1.025
[1]; Time 100.895 s, + YM254890
  calcium response trace, fig. S2B: 1.029
[1]; Time 103.389 s, + YM254890
  calcium response trace, fig. S2B: 1.027
[1]; Time 105.892 s, + YM254890
  calcium response trace, fig. S2B: 1.0264
[1]; Time 108.406 s, + YM254890
  calcium response trace, fig. S2B: 1.031
[1]; Time 110.9 s, + YM254890
  calcium response trace, fig. S2B: 1.026
[1]; Time 113.413 s, + YM254890
  calcium response trace, fig. S2B: 1.02
[1]; Time 115.917 s, + YM254890
  calcium response trace, fig. S2B: 1.023
[1]; Time 118.43 s, + YM254890
  calcium response trace, fig. S2B: 1.023
[1]; Time 120.934 s, + YM254890
  calcium response trace, fig. S2B: 1.021
[1]; Time 123.45 s, + YM254890
  calcium response trace, fig. S2B: 1.02
[1]; Time 125.93 s, + YM254890
  calcium response trace, fig. S2B: 1.014
[1]; Time 128.414 s, + YM254890
  calcium response trace, fig. S2B: 1.021
[1]; Time 130.908 s, + YM254890
  calcium response trace, fig. S2B: 1.026
[1]; Time 133.402 s, + YM254890
  calcium response trace, fig. S2B: 1.02
[1]; Time 135.905 s, + YM254890
  calcium response trace, fig. S2B: 1.011
[1]; Time 138.41 s, + YM254890
  calcium response trace, fig. S2B: 1.019
[1]; Time 140.942 s, + YM254890
  calcium response trace, fig. S2B: 1.016
[1]; Time 143.446 s, + YM254890
  calcium response trace, fig. S2B: 1.018
[1]; Time 145.949 s, + YM254890
  calcium response trace, fig. S2B: 1.014
[1]; Time 148.465 s, + YM254890
  calcium response trace, fig. S2B: 1.02
[1]; Time 150.996 s, + YM254890
  calcium response trace, fig. S2B: 1.016
[1]; Time 153.49 s, + YM254890
  calcium response trace, fig. S2B: 1.011
[1]; Time 156.003 s, + YM254890
  calcium response trace, fig. S2B: 1.016
[1]; Time 158.497 s, + YM254890
  calcium response trace, fig. S2B: 1.014
[1]; Time 161 s, + YM254890
  calcium response trace, fig. S2B: 1.008
[1]; Time 163.494 s, + YM254890
  calcium response trace, fig. S2B: 1.02
[1]; Time 165.987 s, + YM254890
  calcium response trace, fig. S2B: 1.0117
[1]; Time 168.481 s, + YM254890
  calcium response trace, fig. S2B: 1.018
[1]; Time 170.974 s, + YM254890
  calcium response trace, fig. S2B: 1.011
[1]; Time 173.488 s, + YM254890
  calcium response trace, fig. S2B: 1.015
[1]; Time 175.991 s, + YM254890
  calcium response trace, fig. S2B: 1.0057
[1]; Time 178.505 s, + YM254890
  calcium response trace, fig. S2B: 1.009
[1]; Time 181.018 s, + YM254890
  calcium response trace, fig. S2B: 1.011
[1]; Time 183.532 s, + YM254890
  calcium response trace, fig. S2B: 1.014
[1]; Time 186.036 s, + YM254890
  calcium response trace, fig. S2B: 1.016
[1]; Time 188.549 s, + YM254890
  calcium response trace, fig. S2B: 1.014
[1]; Time 191.053 s, + YM254890
  calcium response trace, fig. S2B: 1.017
[1]; Time 193.556 s, + YM254890
  calcium response trace, fig. S2B: 1.013
[1]; Time 196.05 s, + YM254890
  calcium response trace, fig. S2B: 1.011
[1]; Time 198.533 s, + YM254890
  calcium response trace, fig. S2B: 1.011

## CC(C)c1cccc(C(C)C)c1OCOP(=O)(O)O [Fospropofol]
mock; 5.08e-9 M
  calcium mobilization response (Fig. 3E and 3F dose-response): 10.7608 and 18.8313 and 12.7088
mock; 1.37e-7 M
  calcium mobilization response (Fig. 3E and 3F dose-response): 17.7181 and 25.7886 and 28.015
mock; 4.12e-7 M
  calcium mobilization response (Fig. 3E and 3F dose-response): 16.3266 and 13.822 and 21.6142
mock; 1.23e-6 M
  calcium mobilization response (Fig. 3E and 3F dose-response): 32.4677 and 38.8684 and 39.425
mock; 3.7e-6 M
  calcium mobilization response (Fig. 3E and 3F dose-response): 22.4491 and 40.2599 and 25.232
mock; 1.11e-5 M
  calcium mobilization response (Fig. 3E and 3F dose-response): 30.7979 and 29.963 and 39.7033
mock; 3.33e-5 M
  calcium mobilization response (Fig. 3E and 3F dose-response): 34.1374 and 32.1894 and 41.0947
mock; 0.0001 M
  calcium mobilization response (Fig. 3E and 3F dose-response): 28.2933 and 31.0762 and 40.2599
